This assay concerns the target T1, Mitogen-activated protein kinase 12 (Homo sapiens, UniProt P53778).
T1 sequence (P53778 whole entry): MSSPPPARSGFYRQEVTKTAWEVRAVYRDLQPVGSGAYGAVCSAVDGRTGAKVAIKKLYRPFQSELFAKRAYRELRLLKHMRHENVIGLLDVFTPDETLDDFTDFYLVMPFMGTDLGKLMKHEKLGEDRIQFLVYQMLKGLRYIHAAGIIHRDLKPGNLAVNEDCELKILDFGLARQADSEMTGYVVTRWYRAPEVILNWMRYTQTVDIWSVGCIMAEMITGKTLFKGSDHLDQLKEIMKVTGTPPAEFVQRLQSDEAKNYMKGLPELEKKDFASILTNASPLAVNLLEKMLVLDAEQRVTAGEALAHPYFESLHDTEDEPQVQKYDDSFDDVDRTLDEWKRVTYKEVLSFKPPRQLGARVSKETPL
The assay can be described thus: p38 MAPKγ Enzyme Inhibition: The inhibitory activities of compounds of the invention against p38MAPKγ (MAPK12: Invitrogen), were evaluated in a similar fashion to that described hereinabove. The enzyme (800 ng/mL, 2.5 μL) was incubated with the test compound (2.5 μL at either 4 μg/mL, 0.4 μg/mL, 0.04 μg/mL, or 0.004 μg/mL) for 2 hr at RT. The FRET peptides (8 μM, 2.5 μL), and appropriate ATP solution (2.5 μL, 400 μM) was then added to the enzymes/compound mixtures and incubated for 1 hr. Development reagent (protease, 5 μL) was added for 1 hr prior to detection in a fluorescence microplate reader (Varioskan® Flash, Thermo Scientific).

In general, IC50 refers to the concentration that gives 50% inhibition.

As for `Cc1ccc(-n2nc(C(C)(C)C)cc2NC(=O)Nc2ccc(Oc3ccnc(Nc4ccccc4Cl)n3)c3ccccc23)cc1`, the half-maximal inhibitory concentration (IC50) is greater than 15.1 µM.

Source of the values: ChEMBL document CHEMBL5726270, “1-pyrazolyl-3-(4-((2-anilinopyrimidin-4-yl)oxy)napththalen-1-yl) ureas as P38 MAP knase inhibitors” (2017).
